This is an account of results in patent US20250302982A1, “METHODS OF TREATING CANCER WITH ANTI-TISSUE FACTOR ANTIBODY-DRUG CONJUGATES” (Genmab A/S, priority 2022, published 2025).

Entries after “also recorded” stand apart in the source; their conditions may differ. Marks after values point to notes of the source that are not given here.

The target of one experiment is T1, human TF (Homo sapiens, UniProt P13726).
T1 construct: Three VU-SCC cells lines with various levels of TF expression were selected for additional analysis; endogenous in cells; host or cells: HNSCC cell lines VU-SCC-OE, VU-SCC-078, VU-SCC-120
As to the kind of experiment: Tisotumab binding to HNSCC cell lines by flow cytometry. Particulars: 2 μg/ml. As for the experimental part: Methods: Three VU-SCC cells lines with various levels of TF expression were selected for additional analysis. It was determined that VU-SCC-OE had TF expression levels similar to that of non-cancerous fibroblasts and VU-SCC-078 had slightly higher expression levels of TF compared to VU-SCC-OE; VU-SCC-120 was a cell line with high levels of TF expression (FIG. 2). These three cell lines were cultured and subsequently assayed for tisotumab binding. Cells were incubated with the anti-human TF monoclonal antibody, (tisotumab, 2 μg/ml, IgG1-1015-011, Genmab) or an isotype control IgG (Genmab IgG1-b12). The PE-conjugated goat (Fab′)2 anti-human IgG secondary antibody (1:50 Jackson, 109-116-098) was applied and the cells were analyzed by flow cytometry.

Another experiment deals with HNSCC cell lines. As to the kind of experiment: Cell Titer-Blue cytotoxicity assay in HNSCC cell lines. It counts as cell-based, human. As to the method:
Methods: Cells were seeded in 96-wells plates on day 0 (1000-6000 cells/well, depending on the cell line). After overnight culturing, tisotumab vedotin or the negative control isotype IgG1-vedotin (IgG1-c-b12-vc monomethyl auristatin E (MMAE)) was added in increasing concentrations to the different wells. The relative number of viable cells was assessed on day 5 using a Cell Titer-Blue assay (Promega, Leiden, The Netherlands, G8080) according to the protocol from the manufacturer and fluorescence was measured using the GloMax®-Multi Detection System (Promega). Staurosporine (5 μM, Sigma, UCN-01 or 56942) was used as a positive control to induce maximum cell death, and untreated cells were also used as a negative control. After subtraction of background (medium only), the percentages of viable cells were calculated using the following formula: % viable cells=((mean fluorescence test samples−mean fluorescence staurosporine sample)/(mean fluorescence untreated sample−mean fluorescence staurosporine sample))*100. Graphs represent non-linear regression curves of log-transformed antibody concentrations, using Graphpad Prism version 9.1.0 (GraphPad Software, San Diego, CA).

The test system of another experiment is primary keratinocytes. Kind of experiment: Cell Titer-Blue cytotoxicity assay in primary keratinocytes. Format: cell-based, human. Particulars: low TF expression. As to the method:
Keratinocytes were cultured in serum-free Keratinocyte medium (KSFM, Gibco, 17005-034) supplemented with 0.1% bovine serum albumin (BSA, Biovision), recombinant epidermal growth factor (EGF) (Gibco, 10450-013) and bovine pituitary extract (Gibco, 13028-014). HNSCC cell lines were cultured in Dulbecco's Modified Eagle's Medium (DMEM), containing 5% fetal bovine serum (FBS, Gibco, 10270-106) and 2 mM L-glutamine (Lonza, BE-17-605E). The FaDu cell line was purchased from the ATCC. […]
Methods: Cells were seeded in 96-wells plates on day 0 (1000-6000 cells/well, depending on the cell line). […] The relative number of viable cells was assessed on day 5 using a Cell Titer-Blue assay (Promega, Leiden, The Netherlands, G8080) according to the protocol from the manufacturer and fluorescence was measured using the GloMax®-Multi Detection System (Promega). […] After subtraction of background (medium only), the percentages of viable cells were calculated using the following formula: % viable cells=((mean fluorescence test samples−mean fluorescence staurosporine sample)/(mean fluorescence untreated sample−mean fluorescence staurosporine sample))*100. […]

A further experiment deals with FaDu tumor. As to the kind of experiment: TV monotherapy in FaDu xenograft mice. It counts as in vivo, nude mice. As for the experimental part:
(§1) Nude mice (female, athymic nu/nu, age 6-8 weeks old, from Envigo, Horst, The Netherlands), were kept in filter top cages under sterile conditions under standardized environmental conditions. The HNSCC cell lines FaDu, VU-SCC-OE or VU-SCC-040 were subcutaneously injected in both flanks (2×10^6 cells per flank). The implanted tumor cells were allowed to grow to an average size of 100 mm^3 (range 40-180 mm^3). The mice were treated intraperitoneally (ip) with tisotumab vedotin or an isotype control (IgG1-b12-c-vcMMAE) (FIG. 6). […] Tumor volume was measured with electronic calipers (V=(L×W×H)×0.5 where V=volume, L=length, W=width, H=height) and calculated as mean of tumor(s) per mouse. Tumors with a start volume below 40 mm^3 and no signs of growth were excluded from the analysis. Tumors from un-treated tumor bearing mice were harvested and embedded in paraffin for analysis of TF expression using IHC analysis as described in the preceding examples. TF expression was detected using anti-CD142-FITC or isotype control (IgG1-FITC) with rabbit anti-FITC (Zymed) and BrightVision Immunohistochemistry (IHC) Detection Kit and visualized with DAB counterstained with Haematoxylin.
(§2) Nude mice were injected with HNSCC cells and xenografts were established as described above in Example 3A. Xenograft mice (5 mice with 8-10 tumors per group) were treated with PBS, 2 and 4 mg/kg tisotumab vedotin, or 4 mg/kg isotype IgG1-vedotin on days 0, 7 and 13 (FaDu) or on days 0, 7 and 14 (VU-SCC-OE and VU-SCC-040) (FIG. 6). Tumor volume was measured as described in the preceding example. Data analysis was performed using Graph Pad Prism version 9.1.0 (GraphPad Software, San Diego, CA). Data are depicted as mean±SD or mean±SEM. Statistical differences were determined using a Kruskal-Wallis test with multiple comparison tests (>2 groups). Improved overall survival was assessed using the Kaplan-Meier method and differences between the groups was assessed by the Log-rank test (Mantel-Cox). p-values<0.05 were considered significant (*p<0.05, **p<0.01,***p<0.001, **** p<0.0001, ns=not significant).

A further experiment relates to VU-SCC-OE tumor. Kind of experiment: TV monotherapy in VU-SCC-OE xenograft mice. Format: in vivo, nude mice. Particulars: days 0, 7, 14. As for the experimental part:
as §1
as §2, with “Xenograft mice (5 mice with 8-10 tumors per group) were treated with PBS, 2 and 4 mg/kg tisotumab vedotin, or 4 mg/kg isotype IgG1-vedotin on days 0, 7 and 13 (FaDu) or on days 0, 7 and 14 (VU-SCC-OE and VU-SCC-040) (FIG. 6).” left out

For another experiment, the system named is VU-SCC-040 tumor. Kind of experiment: TV monotherapy in VU-SCC-040 xenograft mice. Format: in vivo, nude mice. As to the method:
as §1
as §2, with “Xenograft mice (5 mice with 8-10 tumors per group) were treated with PBS, 2 and 4 mg/kg tisotumab vedotin, or 4 mg/kg isotype IgG1-vedotin on days 0, 7 and 13 (FaDu) or on days 0, 7 and 14 (VU-SCC-OE and VU-SCC-040) (FIG. 6).” left out

Experiment [1] concerns FaDu xenograft. Kind of experiment: TV combined with chemoradiotherapy (CRT) in FaDu xenograft mice. It counts as in vivo, nude mice. As for the experimental part:
(§3) Methods: FaDu xenografts were established in nude mice (5-6 mice/group) as described above in Example 3.
(§4) FaDu xenograft mice were treated 24 hour hours prior to CRT (CRT was administered on day 1 and 11) with TV or the isotype control, which was administered on day 0 and 10. VU-SCC-OE xenograft mice were treated 24 hour hours prior to CRT (CRT was administered on day 1 and 8) with TV or the isotype (IgG1-vedotin) control, which was administered on day 0 and 7. For mice receiving CRT, whole body irradiation (2 Gy; Varian TrueBeam™ Linear Accelerator) was applied approximately 4 hours after administering cisplatin (CDDP, 3 mg/kg). Tumor volume was measured as described above, and statistical analysis was performed on the collected data as also described above.

For the next experiment, the system named is VU-SCC-OE xenograft. Kind of experiment: TV combined with chemoradiotherapy (CRT) in VU-SCC-OE xenograft mice. Format: in vivo, nude mice. As for the experimental part: as §3, §4
The subject of experiment [2] is FaDu xenograft. Kind of experiment: TV combined with radiotherapy (RT) in FaDu xenograft mice. It counts as in vivo, nude mice. The conditions noted are these: for Median survival [days]: end of experiment day 112; for Range Survival [days]: end of the experiment is day 112. As for the experimental part: FaDu xenografts were established in nude mice as described in Example 3. […] For mice subjected to RT, 2 Gy whole body radiotherapy was administered at day 1.

Experiment [3] concerns FaDu xenograft. As to the kind of experiment: TV combined with cisplatin (CDDP) in FaDu xenograft mice. Particulars: 2 mg/kg TV + cisplatin 3 mg/kg ip.
Experimental: FaDu xenografts were established in nude mice (6-7 mice/group) as described above in Example 4. Mice were treated with the antibodies on day 0 and 7 and/or on day 1 and 8 with 3 mg/kg intraperitoneal cisplatin (CDDP) chemotherapy (CT) (FIG. 6). TV or control IgG-vedotin (IgG1-V) was administered at day 0. For mice subjected to chemotherapy, cisplatin was administered at day 1. A minimum of 8 tumors were included per group.

T1 sequence (P13726 33-295): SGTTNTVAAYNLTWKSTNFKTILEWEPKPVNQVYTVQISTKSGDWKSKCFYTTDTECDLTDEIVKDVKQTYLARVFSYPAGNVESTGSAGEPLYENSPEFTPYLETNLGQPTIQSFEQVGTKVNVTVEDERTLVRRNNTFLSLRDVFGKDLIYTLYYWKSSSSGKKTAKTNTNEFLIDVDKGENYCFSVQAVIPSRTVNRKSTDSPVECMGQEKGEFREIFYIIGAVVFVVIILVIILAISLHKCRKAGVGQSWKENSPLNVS

Consider tisotumab, for which the “binding to HNSCC cells (flow cytometry)” value is on record as “bound robustly” in the experiment with human TF (VU-SCC-078, intermediate expression of TF); “bound robustly” with human TF (VU-SCC-120, high levels of TF); “still capable of binding” with human TF (VU-SCC-OE, lower levels of TF expression).
In the case of tisotumab vedotin, the “mean IC50 values” in the experiment with HNSCC cell lines (HNSCC cell lines with intermediate and high levels of TF expression) lay in the range of 2.5 to 7 ng/mL. The “average IC50” value in the experiment with HNSCC cell lines (VU-SCC-OE, low TF expression) was “above 0.025 μg/ml”; with primary keratinocytes it was “above 0.025 μg/ml”. Also, the “killing of HNSCC cell lines (percent viable cells)” value in the experiment on HNSCC cell lines (increasing concentrations, viable cells on day 5) is “efficient and dose-dependent killing”. The “tumor growth compared to control groups” value was “significant inhibition of tumor growth” in the experiment with FaDu tumor (2 mg/kg ip, days 0, 7, 13); “did not inhibit tumor growth” in the experiment on VU-SCC-040 tumor (1 mg/kg monotherapy); “inhibition of tumor growth was observed” with VU-SCC-040 tumor (2 mg/kg); “inhibition of tumor growth was observed” in the experiment on VU-SCC-040 tumor (4 mg/kg). Further, the tumor regression result in the experiment on FaDu tumor (2 mg/kg ip, days 0, 7, 13) is “tumor regression was observed after 3 treatments”; with FaDu tumor (4 mg/kg ip, after the first treatment), “significant and persistent tumor regression”; in the experiment with VU-SCC-OE xenograft (2 mg/kg TV + CRT), “induced tumor regression”. Also, the “time after start of initial treatment from which tumor regrowth was visible” value with FaDu tumor (2 mg/kg, last treatment on day 13) is recorded as no less than 30 days. Moreover, the “recurrence of tumor growth until end of experiment (day 76)” value in the experiment with FaDu tumor (4 mg/kg ip, days 0, 7, 13) is “without recurrence of tumor growth”. In addition, the “time to complete tumor regression in all mice” value with FaDu tumor (4 mg/kg ip, days 0, 7, 13) is given as no more than 30 days. In addition, in the experiment on FaDu tumor (tisotumab vedotin treatment groups, day 7), the “tumor size on day 7 compared to isotype control or PBS” value is given as “considerably lower tumor size”. In addition, the results for the tumor growth entry with VU-SCC-OE tumor (1 mg/kg), with VU-SCC-OE tumor (2 mg/kg) and in the experiment on VU-SCC-OE tumor (4 mg/kg TV) were “rapid tumor growth”, “inhibition of tumor growth” and “inhibition of tumor growth”, respectively. Moreover, the “tumor growth at day 7 compared to isotype control” value with VU-SCC-040 tumor (4 mg/kg, after 1 treatment) is “reduced tumor growth”. In addition, the “overall survival (Kaplan-Meier) compared to control groups, CRT or TV alone” value with FaDu xenograft [1] (2 mg/kg TV + CRT) was “significant increase in overall survival”. The “tumor size at day 9 after first treatment compared to IgG1-vedotin + CRT” value in the experiment with FaDu xenograft [1] (2 mg/kg TV + CRT) was “significant reduction in tumor size”. The “tumor growth compared to IgG1-vedotin control group” value with FaDu xenograft [1] (2 mg/kg TV alone, day 0 and 10) is “reduced tumor growth”. Moreover, the “survival compared to control groups or CRT or TV alone” value with VU-SCC-OE xenograft (2 mg/kg TV + CRT) was “significantly prolonged survival”. In the experiment with VU-SCC-OE xenograft (2 mg/kg TV alone), the “tumor growth compared to control groups (PBS and IgG1-vedotin)” value is listed as “some inhibition of tumor growth”. In addition, the “survival compared to control treatment (PBS or IgG-V)” value in the experiment with FaDu xenograft [2] (1 mg/kg TV alone) is “did not prolong survival”. For the same substance, in the experiment with FaDu xenograft [2] (2 mg/kg TV + RT, p<0.001), the “survival time compared to RT alone” value was “significantly better survival time”. For the same substance, the “tumor volume on day 7” value in the experiment on FaDu xenograft [2] (TV 1 mg/kg day 0 + RT 2 Gy day 1) was “Decreased tumor volume”. For the same substance, the “tumor burden on day 7” value in the experiment with FaDu xenograft [2] (TV 2 mg/kg alone, day 0) was “lowest tumor burdens”. The “tumor burden / tumor volume on day 7” value in the experiment with FaDu xenograft [2] (TV 2 mg/kg day 0 + RT 2 Gy day 1, listed as TV) was “lowest tumor burdens; also recorded: Decreased tumor volume”. In addition, the results for the “Median survival” value with FaDu xenograft [2] (hTV 1 mg/kg), in the experiment with FaDu xenograft [2] (hTV 1 mg/kg + RT (2 Gy)) and in the experiment on FaDu xenograft [2] (hTV 2 mg/kg) were 10 days, 21 days and 69.5 days, respectively. Also, the “Range Survival” value with FaDu xenograft [2] (hTV 1 mg/kg) lay in the range of 8 to 16 days; with FaDu xenograft [2] (hTV 1 mg/kg + RT (2 Gy)), 14 to 21 days. Besides, the “Median survival [days]” value was “median not reached” in the experiment with FaDu xenograft [2] (hTV 2 mg/kg + RT (2 Gy), listed as TV) and “Undefined” in the experiment on FaDu xenograft [2] (hTV 2 mg/kg + RT (2 Gy), listed as hTV). Further, the “Range Survival [days]” value in the experiment on FaDu xenograft [2] (hTV 2 mg/kg + RT (2 Gy)) is given as 21-112* days; in the experiment with FaDu xenograft [2] (hTV 2 mg/kg), 28-112* days. Moreover, the “survival compared to either treatment alone” value with FaDu xenograft [3] is “improved survival”. Also, the “tumor load on day 7 compared to either treatment alone” value with FaDu xenograft [3] is given as “significantly reduced tumor load”.
